Patent US5760036A, “Aminediol protease inhibitors” (E. R. Squibb & Sons, Inc., priority 1995, dated 1998)
Where a name gives a salt, the structure may show the parent alone. Read-outs that look alike come from different tables or passages of the source.

Columns and labels:
HIV protease = molecular target: T1, HIV protease (Human immunodeficiency virus type 1 group M subtype B, UniProt P04585); test: HIV Protease Assay; type: biochemical
T1 construct: and purified protease
Method in brief: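 At a single final concentration of 10 μM (4% DMSO), inhibitors were added to a 30-minute, 37° C reaction of purified enzyme with 450 μM H2N-Val-Ser-Gln-Asn-(β-naphthyl-alanine)-Pro-Val-Ile-OH at pH 5.5 (sodium acetate, BSA). Hydrolysis was quantified by reverse-phase HPLC with 220 nm detection after acid quench.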

[1] = test system: RF strain of HIV (CEM-SS cells); test: Cell Culture Anti-HIV Activity (cell viability, formazan); type: cell-based; details: Human immunodeficiency virus 1, CEM-SS, 144 h, CEM-SS cells, RF strain of HIV, multiplicity of infection 0.04, 6 days at 37° C., 450 nm; read-out: HIV (CEM Cells) IC50
Method in brief: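 Half-log compound dilutions added to CEM-SS cells (5000/well) carrying HIV RF (MOI 0.04), 6 days, 37° C. Cell protection measured as formazan from tetrazolium, A450. IC50: drug level restoring infected-cell formazan to 50% of the uninfected untreated control.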

[2] = pH 5.5, 10 μM inhibitor, 4% DMSO, 450 μM substrate, pH 5.5, 30 minutes at 37° C., RP-HPLC, read-out: HIV Protease % Inhibition at 10 μM

SMILES	inhibition at 10 µM (HIV protease; pH 5.5, read-out: HIV Protease % Inhibition at 10 μM) [%]	inhibition at 10 µM (HIV protease; [2]) [%]	HIV Protease % Inhibition at 10 μM (HIV protease; 10 μM inhibitor, 4% DMSO, 450 μM substrate, pH 5.5, 30 minutes at 37° C., RP-HPLC) [%]	IC50 [1] [µM]
CC(C)(C)OC(=O)N[C@@H](Cc1ccccc1)[C@H](O)CNC[C@@H](O)[C@H](Cc1ccc(OCC(=O)N2CCCCC2)cc1)NC(=O)OC(C)(C)C [Compound 332]	100			0.07
CC[C@H](C)[C@H](NC(=O)OCc1ccccc1)[C@H](O)CNC[C@@H](O)[C@H](Cc1ccccc1)NC(=O)OC(C)(C)C [Compound 16, [2S-[2R*,[S*(2S*,3R*)]]-[1-Hydroxy-3-[[(1,1-dimethylethoxy)carbonyl]-amino]-2-hydroxy-4-phenylbutyl]amino]ethyl-2-methylbutyl]carbamic acid, phenylmethyl ester]		83		≥ 2.3
CC(C)(C)OC(=O)N[C@@H](Cc1ccccc1)[C@H](O)CNC[C@@H](O)[C@H](Cc1ccccc1)NC(=O)OCCO [Compound 241, [R-(R*,S*)]-[Iminobis[2-hydroxy-1-(phenylmethyl)-3,1-propanediyl)]biscarbamic acid, 1,1-dimethylethyl-2-hydroxyethyl ester]		95		0.28
CC(C)(CO)OC(=O)N[C@@H](Cc1ccccc1)[C@H](O)CNC[C@@H](O)[C@H](Cc1ccccc1)NC(=O)OC(C)(C)CO [Compound 165, [R-(R*,S*)]-[Iminobis[2-hydroxy-1-(phenylmethyl)-3,1-propanediyl)biscarbamic acid, bis(2-hydroxy-1,1-dimethylethyl) ester]		100		0.62
CC(C)(C)OC(=O)N[C@@H](Cc1ccccc1)[C@H](O)CNC[C@@H](O)[C@H](Cc1ccc(OCC(=O)O)cc1)NC(=O)OC(C)(C)C [Compound 346, [1S-[1R*,2S*(2S*,3R*)]-[4-[4-(Carboxymethoxy)phenyl)-3-[[3-[[1,1-dimethylethoxy)carbonyl]amino]-2-hydroxy-1-(phenylmeyhyl)propyl)carbamic acid, 1, 1dimethylethyl ester]		98		> 50
CC(C)[C@H](NC(=O)OCc1ccccc1)C(=O)N[C@@H](Cc1ccccc1)[C@H](O)CNC[C@@H](O)[C@H](Cc1ccccc1)NC(=O)[C@H](CC(N)=O)NC(=O)OCc1ccccc1 [Compound 112, [S-[1R*,2S*(2S*,3R*)]]-N-[2-Hydroxy-3-[[2-hydroxy-4-phenyl-3-[[N-[(phenyl-methoxy)carbonyl]-L-valyl]amino]butyl]amino]-1-(phenylmethyl)propyl]-N^2-[(phenylmethoxy)-carbonyl]-L-asparaginamide, monohydrochloride]		100		> 8.6
CC(C)[C@H](NC(=O)CO)C(=O)N[C@@H](Cc1ccccc1)[C@H](O)CNC[C@@H](O)[C@H](Cc1ccccc1)NC(=O)OC(C)(C)C (relative stereo) [Compound 259, [1R*, 2S* (2S*, 3R*)]-N-[3-[[3-[[(1,1-Dimethylethoxy)carbonyl]amino]-2-hydroxy-4-phenylbutyl]amino]-2-hydroxy-1-(phenylmetyl)propyl]-N^2-(hydroxyacetyl)-L-valinamide]		99		5
CC(C)[C@H](NC(=O)N(C)Cc1ccccn1)C(=O)N[C@@H](Cc1ccccc1)[C@H](O)CNC[C@@H](O)[C@H](Cc1ccccc1)NC(=O)[C@@H](NC(=O)N(C)Cc1ccccn1)C(C)C [Compound 75, [S-(1R*,2S*)]-N,N'-[Iminobisr[2-hydroxy-1-(phenylmethyl)-3,1-propanediyl]bisr[N^2-[[methyl(2-pyridinylmethyl)amino]carbonyl]-L-valinamide]		100		5

The next lines start with results.

inhibition at 10 µM (HIV protease; pH 5.5, read-out: HIV Protease % Inhibition at 10 μM) [%]	inhibition at 10 µM (HIV protease; [2]) [%]	HIV Protease % Inhibition at 10 μM (HIV protease; 10 μM inhibitor, 4% DMSO, 450 μM substrate, pH 5.5, 30 minutes at 37° C., RP-HPLC) [%]	SMILES	IC50 [1] [µM]
	100		CC(C)(C)OC(=O)N[C@@H](Cc1ccccc1)[C@H](O)CNC[C@@H](O)[C@H](Cc1ccccc1)NC(=O)OC1(C)CCOC1 (stereo partly drawn) [Compound 314, [1S-(1R*,2S*)]-[Iminobis[2-hydroxy-1-(phenylmethyl)-3,1-propanediyl]]bis[carbamic acid], 1,1-dimethylethyl-3-methyl-3-tetrahydrofuranyl ester]	0.12
	96		CC(C)(C)OC(=O)N[C@@H](Cc1ccccc1)[C@H](O)CNC[C@@H](O)[C@H](Cc1ccccc1)NC(=O)OC(C)(C)Cc1ccccc1 [Compound 154, [R-(R*,S*)]-Iminobis[2-hydroxy-1-(phenylmethyl)-3,1-propanediyl)]biscarbamic acid, 1,1-dimethylethyl 1,1-dimethyl-2-phenylethyl ester]	> 1.2
	3		CC(C)(C)OC(=O)N[C@@H](Cc1ccccc1)C(=O)N[C@@H](Cc1ccccc1)[C@H](O)CNC[C@@H](O)[C@H](Cc1ccccc1)NC(=O)[C@H](Cc1ccccc1)NC(=O)OC(C)(C)C [Compound 38, [S-(1R*,2S*)]-[Iminobis[2-hydroxy-1-(phenylmethyl)-3,1-propanediyl]]-bisimino-bis[N^2-[(1,1-dimethylethoxy)carbonyl]-L-phenyl-alaninamide]]	> 4
	100		CC(C)(C)OC(=O)N[C@@H](Cc1ccc(OCCc2ccccn2)cc1)[C@H](O)CNC[C@@H](O)[C@H](Cc1ccccc1)NC(=O)OC(C)(C)CO [Compound 298, [1S-[1R*,2S*(2S*,3R*)]]-[2 Hydroxy-3-[[2-hydroxy-3-[[(2-hydroxy-1,1-dimethylethoxy)carbonyl]amino]-4-phenylbutyl]amino]-1-[[4-[2-(2-pyridinyl)ethoxy]phenyl]methyl]propyl]carbamic acid, 1,1-dimethylethyl ester]	0.06
	99		CC(C)[C@H](NC(=O)C(N)Cc1ccccc1O)C(=O)N[C@@H](Cc1ccccc1)[C@H](O)CNC[C@@H](O)[C@H](Cc1ccccc1)NC(=O)OC(C)(C)C (relative stereo) [Compound 211, [1R*,2S*(2S*,3R*)]-N-[3-[[3-[[(1,1-Dimethylethoxy)carbonyl]amino]-2-hydroxy-4-phenylbutyl]amino]-2-hydroxy-1-(phenylmethyl)propyl]-N^2-(2-hydroxyoxyphenylalanyl)-L-valinamide, fumarate (2:3) salt]	0.9
	89		CC(C)(C)OC(=O)N[C@@H](Cc1ccccc1)[C@H](O)CNC[C@@H](O)[C@H](Cc1ccccc1)NC(=O)OC(C)(C)CNC=O [Compound 236, [1S-(1R*,2S*)]-[Iminobis[2-hydroxy-1-(phenylmethyl)-3,1-propanediyl]]biscarbamic acid, 2-(formylamino)-1,1-dimethylethyl 1,1-dimethylethyl ester]	0.7
		98	CC(C)(C)OC(=O)N[C@@H](Cc1ccccc1)[C@H](O)CNC[C@@H](O)[C@H](Cc1ccccc1)NC(=O)C1(O)COCC1(C)C (single isomer, unassigned; isomer a) [Compound 364, [1S-[1R*,2S*(2S*,3R*)]]-[2-Hydroxy-3-[[tetrahydro-3-hydroxy-4,4-dimethyl-3-furanyl)carbonyl]amino]-4-phenylbutyl]amino]-1-(phenylmethyl)-propyl]carbamic acid, 1,1-dimethylethyl ester, Isomer A]	0.22
	100		CC(C)[C@H](NC(=O)[C@H](C)N)C(=O)N[C@@H](Cc1ccccc1)[C@H](O)CNC[C@@H](O)[C@H](Cc1ccccc1)NC(=O)OC(C)(C)C [Compound 96, [S-[1R*,2S*(2S*,3R*)]-N-]3-[[3-[[(1,1-Dimethylethoxy)carbonyl]amino]-2-hydroxy-4-phenylbutyl]amino]-2-hydroxy-1(phenylmethyl)propyl]-N^2-(L-alanyl)-L-valinamide, fumarate salt]	> 7.6
	99		CC(C)[C@H](NC(=O)[C@@H](N)CO)C(=O)N[C@@H](Cc1ccccc1)[C@H](O)CNC[C@@H](O)[C@H](Cc1ccccc1)NC(=O)OC(C)(C)C (relative stereo) [Compound 212, [1R*,2S*(2S*,3R*)]-N-[N-[3-[[3-[[(1,1-Dimethylethoxy)carbonyl]amino]-2-hydroxy-4-phenylbutyl]amino]-2-hydroxy-1-(phenylmethyl)propyl]-L-valyl]-L-serinamide, fumarate (2:3) salt]	3.8
	58		O=C(N[C@@H](Cc1ccccc1)[C@H](O)CNC[C@@H](O)[C@H](Cc1ccccc1)NC(=O)OCc1ccccc1)OCc1ccccc1 [Compound 44, [R-(R*,S*)]-Iminobis[2-hydroxy-1-(phenylmethyl)-3,1-propandiyl]]biscarbamic acid, bis(phenylmethyl) ester]	> 5
	87		CC(C)(C)OC(=O)N[C@@H](Cc1ccccc1)[C@H](O)CNC[C@@H](O)[C@H](Cc1ccccc1)NC(=O)OCc1ccccc1 [Compound 45, [R-(R*,S*)]-[Iminobis[2-hydroxy-1-(phenylmethyl)-3,1-propandiyl]biscarbamic acid, 1,1-dimethylethylphenylmethyl ester]	0.5
	99		COC(=O)N[C@H](C(=O)N[C@@H](Cc1ccccc1)[C@H](O)CNC[C@@H](O)[C@H](Cc1ccccc1)NC(=O)OC(C)(C)C)C(C)C (relative stereo) [Compound 247, [1R*,2S*,3R*)]-N-[3-[[3-[[(1,1-Dimethylethoxy)carbonyl]amino]-2-hydroxy-4-phenylbutyl]amino]-2-hydroxy-1-(phenylmethyl)propyl]-N^2-(methoxycarbonyl)-L-valinamide]	0.1
